Source: publication PMC10931776, “Modes of Interactions with DNA/HSA Biomolecules and Comparative Cytotoxic Studies of Newly Synthesized Mononuclear Zinc(II) and Heteronuclear Platinum(II)/Zinc(II) Complexes toward Colorectal Cancer Cells” (International Journal of Molecular Sciences, 2024)

Tests used:
[1] = tested on: mouse mesenchymal stem cells (mMSC); assay: MTT cytotoxicity assay, mMSC; type: cell-based; details: 48 h
Experimental: (§1) The in vitro cytotoxicity of newly synthesized mono- and heteronuclear platinum(II)/and zinc(II) complexes, featuring a 4,4′,4″-tri-tert-butyl-2,2′:6′,2″-terpyridine ligand (designated as C1–C5), was assessed using MTT assay procedures. This evaluation targeted various cell lines: mouse colorectal carcinoma (CT26), human colorectal carcinoma (HCT116 and SW480), and non-cancerous mouse mesenchymal stem cells (mMSC). These cell lines were exposed to synthesized complexes for 48 h, with concentrations ranging from 1.17 to 150 μM.
In the context of developing low-toxicity drugs, it is imperative to evaluate the antiproliferative activity against normal cells. The in vitro toxicity of the tested complexes toward normal mouse mesenchymal stem cells (mMSC) was examined. […] These findings indicate the possibility of enhanced in vivo tolerance for this complex.
(§2) In our study, various cell lines were cultured, including mouse colorectal carcinoma (CT26), human colorectal carcinoma (HCT116 and SW480) obtained from ATCC, USA, and mouse mesenchymal stem cells (mMSC, Gibco), New York, NY, USA). These cell lines were consistently maintained in complete Dulbecco’s Modified Eagle Medium (DMEM) supplemented with 10% fetal bovine serum (FBS) (Sigma Aldrich, St. Louis, MO, USA), 100 IU/mL penicillin, and 100 μg/mL streptomycin antibiotics (Invitrogen, Carlsbad, CA, USA). The cultures were incubated at 37 °C in a humidified atmosphere of 5% carbon dioxide (CO2). […] The viability and count of the cells were determined using Trypan blue staining, ensuring the accuracy and reliability of the experimental outcomes.
(§3) The cytotoxic effects of five newly synthesized complexes, alongside cisplatin, were assessed through the MTT assay method, in line with previously established protocols. During the exponential growth phase, cells were collected from culture flasks, counted, and then seeded in 96-well culture plates at a density of 5·10^3 cells per well. Subsequent treatment involved exposing these cells to varying concentrations of the newly synthesized complexes and cisplatin (ranging from 1.17 to 150 μM) for a duration of 48 h, with fresh complete medium serving as the control. The results were quantified relative to the control (untreated cells), providing a comparative measure of cytotoxicity. Additionally, IC50 values, representing the concentration required to inhibit 50% of the cell viability, were calculated using Microsoft Office Excel 2010. Lastly, the data were presented as percentages of viable cells in accordance with the methodology outlined in the referenced study, facilitating a comprehensive understanding of the anticancer potential of these compounds.

[2] = tested on: human colorectal carcinoma (HCT116); assay: MTT cytotoxicity assay, HCT116; type: cell-based; details: 48 h
Experimental: as §1, §2, §3

[3] = tested on: human colorectal carcinoma (SW480); assay: MTT cytotoxicity assay, SW480; type: cell-based; details: 48 h
Experimental: as §1, §2, §3

CT26 cells [4] = assay: Annexin V FITC / Propidium Iodide apoptosis flow cytometry; type: cell-based, mouse; details: CT26, 24 h treatment
Experimental: The capacity of the C1 complex to induce apoptotic death in cancer cells was assessed using flow cytometric analysis. This analysis involved treating cells with the C1 complex and subsequently staining them with Annexin V FITC and Propidium Iodide. […] In a similar vein, in a related context, NCI-H460 cancer cells, which are a line of human large-cell lung carcinoma cells, were subjected to treatment with binuclear platinum(II) complexes. These complexes feature 4′-substituted-2,2′:6′,2″-terpyridine ligands and were administered for a duration of 24 h. Following this treatment, there was a significant increase in the proportion of apoptotic cells, correlating strongly with exposure to these specific ligands.
The evaluation of apoptosis in cells subjected to treatment was conducted employing the Annexin V and Propidium Iodide double staining assay in accordance with the methodology outlined in prior studies. This approach enabled the determination of the percentage of apoptotic cells. In further experiments, cells were fixed and permeabilized using a permeabilization buffer provided by BD Bioscience, Heidelberg, Germany. […] The analysis of these treated cells was carried out using a FACS Calibur flow cytometer (BD Biosciences, San Jose, CA, USA) and the resulting data were meticulously analyzed with FlowJo software (v10.8.2). […]

[5] = tested on: mouse colorectal carcinoma (CT26); assay: MTT cytotoxicity assay, CT26; type: cell-based; details: 48 h
Experimental: as §1, §2, §3

CT26 cells [6] = assay: Cell cycle analysis by flow cytometry; type: cell-based, mouse; details: CT26, 24 h treatment, vs untreated
Experimental: The study of cell cycle arrest in CT26 carcinoma cells treated with the potent compound C1 was conducted to elucidate the potential cellular mechanisms underlying its anticancer effect. For this purpose, CT26 cells were subjected to 24 h treatment with the C1 complex. […] This arrest is likely attributable to molecular alterations within the cancer cells post-treatment. […] This reduction in the S phase, where DNA replication occurs, further indicates the efficacy of the C1 complex in hindering cell cycle progression. […] The induction of cell cycle arrest by the C1 compound potentially curtails the growth and dissemination of carcinoma cells, underscoring its efficacy as a promising anticancer agent.
Our research progressed to explore the potential effects of the newly synthesized C1 complex on the cell cycle dynamics of CT26 tumor cells. […] Each sample tube was then treated with a specific antibody targeting Ki67 (eBioscience, San Diego, CA, USA)/1 μL of Vybrant® DyeCycleTM Ruby stain (Thermo Fisher Scientific Inc., Waltham, MA, USAand subsequently analyzed using a FACS Calibur flow cytometer (BD Biosciences, San Jose, CA, USA). A minimum of 15,000 events per sample were examined. Data analysis was conducted using the FlowJo vX.0.7 software, allowing for a detailed assessment of the cell cycle phases and any impact induced by the C1 complex.

In the case of [ZnCl2(terpy^t^Bu)] [C1], the “Cytotoxic effect on mMSC compared to cancer cells (HCT116, SW480, CT26)” value ([1]; concentrations 1.17 to 18.75 μM) is reported as “lower cytotoxic effect”, the IC50 ([1]; non-cancerous cells, read-out: IC50 ± SEM, mMSCs) is reported as 56.7 ± 6.93 µM and the “Selectivity Index (IC50 mMSC/IC50), HCT 116” value [2] is reported as 0.6. The IC50 ([2]; read-out: IC50 ± SEM, HCT 116) was 88.2 ± 48.5 µM, the “Selectivity Index (IC50 mMSC/IC50), SW480” value [3] was 0.5 and the IC50 ([3]; read-out: IC50 ± SEM, SW480) was 106 ± 126 µM. The “Induction of apoptotic cell death” value (CT26 cells [4]; Annexin V FITC/PI) was “entered both early and late stages of apoptosis”, the “Quadrant number upper left of PI / Annexin V plot (necrotic, AnnV−PI+)” value (CT26 cells [4]; representative FACS plot, untreated 1.55) was “underwent necrosis” and the “Selectivity Index (IC50 mMSC/IC50), CT26” value [5] was 1.3. The IC50 ([5]; read-out: IC50 ± SEM, CT26) was 44.7 ± 58.7 µM, the “Cell cycle distribution, G0/G1 phase” value (CT26 cells [6]) was “G0/G1 phase arrest” and the “Cell cycle distribution, synthesis (S) phase” value (CT26 cells [6]) was “notable decrease”.
